The text below walks through data of ChEMBL document CHEMBL4842348 (J Med Chem, 2021).

Usually Tmax stands for the time at which the peak concentration occurs. For orientation: Cmax means the highest concentration seen after dosing. In general, MRT refers to a mean duration of stay, worked out from the concentration-time curve. In general, bioavailability refers to dose-corrected exposure relative to a reference, in per cent. Usually AUC(0-inf) stands for the area under the concentration-time curve extrapolated to infinity.

A short description of data set [1]: Tmax in rhesus monkey at 2 mg/kg, po. It counts as ADME, organism-based, Macaca mulatta. The conditions noted are these: in vivo.
Data set [2] in a line: Half life in lean NFR-transgenic mouse adipose tissue at 10 mg/kg, po qd treated for 40 days. The class given is ADME, organism-based. The conditions noted are these: time 40 day.
The nature of data set [3]: Half life in lean NFR-transgenic mouse plasma at 10 mg/kg, po qd treated for 40 days. It counts as ADME, organism-based. The conditions noted are these: time 40 day.
Data set [4] can be described thus: Terminal half life in WH rat at 1 mg/kg, iv. The class given is ADME, organism-based. The conditions noted are these: in vivo, read-out: beta t1/2 (converted).
Data set [5] in a line: Cmax in CD1 mouse at 2 mg/kg, po. The class given is ADME, organism-based. Set-up: route oral, dose 2 mg/kg. The conditions noted are these: in vivo.
Data set [6] can be described thus: Half life in lean NFR-transgenic mouse liver at 10 mg/kg, po qd treated for 40 days. It counts as ADME, organism-based. The conditions noted are these: time 40 day.
A short description of data set [7]: MRT in […] rhesus monkey at 0.5 mg/kg, iv. It counts as ADME, organism-based, Macaca mulatta. The conditions noted are these: in vivo.
Data set [8] in a line: Cmax in high fat diet fed dog at 1 mg/kg, po in Imwitor/Tween. It counts as ADME, organism-based, Canis lupus familiaris. Details: route oral, dose 1 mg/kg. The conditions noted are these: in vivo.
Data set [9] can be described thus: Drug recovery in bile duct cannulated single po dosed rhesus monkey assessed as recovered total bile radioactivity. The class given is ADME, organism-based, Macaca mulatta. The conditions noted are these: in vivo.
The nature of data set [10]: Drug recovery in bile duct cannulated single iv dosed WH rat assessed as recovered parent compound in plasma measure at 24 hrs relative to total recovery. The conditions noted are these: in vivo. The class given is ADME, organism-based.
A short description of data set [11]: Drug recovery in bile duct cannulated single po dosed rhesus monkey assessed as recovered glucuronide conjugate in bile relative to total recovery. The conditions noted are these: in vivo. It counts as ADME, organism-based, Macaca mulatta.
The nature of data set [12]: Oral bioavailability in WH rat at 2 mg/kg. It counts as ADME, organism-based. The conditions noted are these: in vivo.
Data set [13] can be described thus: Half life in DIO wild type mouse liver at 10 mg/kg, po qd treated for 40 days. The conditions noted are these: time 40 day. It counts as ADME, organism-based.
The nature of data set [14]: AUC (0 to infinitive) in CD1 mouse at 2 mg/kg, po. The conditions noted are these: in vivo. The class given is ADME, organism-based. Set-up: route oral, time infinity, dose 2 mg/kg.
Data set [15] can be described thus: Drug recovery in bile duct cannulated single po dosed rhesus monkey assessed as recovered glucuronide conjugate in feces relative to total recovery. The class given is ADME, organism-based, Macaca mulatta. The conditions noted are these: in vivo.
Data set [16] is described as follows: Half life in DIO wild type mouse adipose tissue at 10 mg/kg, po qd treated for 40 days. The class given is ADME, organism-based. The conditions noted are these: time 40 day.
The nature of data set [17]: AUC (0 to infinitive) in rhesus monkey at 2 mg/kg, po. The class given is ADME, organism-based, Macaca mulatta. Details: route oral, time infinity, dose 2 mg/kg. The conditions noted are these: in vivo.
The nature of data set [18]: Drug recovery in bile duct cannulated single iv dosed WH rat assessed as recovered parent compound in feces relative to total recovery. It counts as ADME, organism-based. The conditions noted are these: in vivo.
Data set [19] in a line: Cmax in WH rat at 2 mg/kg, po. The class given is ADME, organism-based. Details: route oral, dose 2 mg/kg. The conditions noted are these: in vivo.
The nature of data set [20]: Oral bioavailability in Beagle dog at 2 mg/kg. It counts as ADME, organism-based, Canis lupus familiaris. The conditions noted are these: in vivo.
A short description of data set [21]: Tmax in CD1 mouse at 2 mg/kg, po. The conditions noted are these: in vivo. The class given is ADME, organism-based.
Data set [22] is described as follows: Cmax in fasted dog at 1 mg/kg, po in Imwitor/Tween. Set-up: route oral, dose 1 mg/kg. The class given is ADME, organism-based, Canis lupus familiaris. The conditions noted are these: in vivo.
Data set [23] is described as follows: Drug recovery in bile duct cannulated single po dosed WH rat assessed as recovered total urine radioactivity. It counts as ADME, organism-based. The conditions noted are these: in vivo.
Data set [24] is described as follows: Half life in lean wild type mouse plasma at 10 mg/kg, po qd treated for 40 days. It counts as ADME, organism-based. The conditions noted are these: time 40 day.

With `COc1ncc(-c2ccc(C(=O)O)cc2C)cc1-c1ccc(C(F)(F)F)cc1[C@@H]1CC[C@H]2[C@@H](c3cc(C(F)(F)F)cc(C(F)(F)F)c3)OC(=O)N12`, the results for the time of peak concentration (Tmax) in [1] and in data set [21] were 6.7 h and 2.7 h, respectively. Further, the half-life in data set [2] is 36 h; in data set [3], 288 h; in [4] it was 8.1 h; in data set [6] it was 69.6 h; in data set [13] it was 76.8 h; in data set [16], 86.4 h. This compound gave a half-life in data set [24] of 0.8 h. In addition, the Cmax in [5] turned out to be 430 nM; in [8], 1300 nM; in data set [19], 400 nM; in [22], 1500 nM. This compound returned an MRT in [7] of 60 h. Besides, the Drug recovery in [9] was > 99%; in [10] it was > 99%; in data set [11], > 96%; in data set [15], 5%; in data set [18], > 98%; in [23] it was 0%. In addition, the bioavailability in [12] is 65%; in data set [20] it was 14%. Besides, the area under the curve AUC(0-inf) in data set [14] came to 7.9 µM·h; in [17], 11 µM·h.
